Legend:
[1] = Cellular growth inhibition, T-Rex 293 SC cells with doxycycline (progesterone receptor isoform B induced), Example 45; assay type: cell-based; settings: progesterone receptor isoform B induced with 10 ng/mL doxycycline, 72 hours, CellTiter-Glo 2.0, Table 11
Description: (§1) The following types of cells were prepared for this experiment: (i) a T-Rex 293 cell line having increased expression of progesterone receptor isoform B protein due to exposure to doxycycline and (ii) a T-Rex 293 cell line lacking increased expression of progesterone receptor isoform B protein. Ability of the test compounds to inhibit proliferation of the foregoing cell types was evaluated according to the procedures set forth below.
(§2) The doxycycline-inducible progesterone receptor isoform B protein expressing cell line was established using the following protocol: T-Rex 293 cells were purchased from Invitrogen (Cat #R71007) and transfected using Lipofectamine 2000 with the wild-type progesterone receptor B protein sequence cloned into the pcDNA4/TO vector. Transfected cells were selected using 400 μg/mL Zeocin (Invitrogen Cat #R25001). Following selection, single clones were raised and maintained in Dulbecco's Modified Eagle Medium (DMEM) supplemented with 10% w/w Tetracycline-free fetal bovine serum (FBS) and 250 μg/mL Zeocin. Clones were analyzed for expression of progesterone receptor isoform B protein in the presence and absence of 10 ng/mL doxycycline (Sigma Cat #D9891), and a single doxycycline-inducible clone (hereinafter “SC”) was selected for use in downstream assays.
(§3) The SC cells were seeded on poly-D-lysine coated, black clear-bottom 384-well plates at 2500/well, in 25 μL Phenol Red Free Dulbecco's Modified Eagle Medium (DMEM) supplemented with 10% w/w charcoal-dextran treated fetal bovine serum (FBS) and 1% w/w pen-strep, with or without 10 ng/mL doxycycline. Pen-Strep is a commercially available mixture of penicillin G and streptomycin, which is used in mammalian cell culture media to prevent bacterial contamination. Phenol Red Free Dulbecco's Modified Eagle Medium (DMEM) supplemented with 10% w/w charcoal-dextran treated fetal bovine serum (FBS) and 1% w/w pen-strep, with or without 10 ng/mL doxycycline is herein referred to as Treatment Medium. Following seeding of cells in the plates, the plates were spun at 300×g for 30 seconds, then equilibrated to room temperature for 30 minutes, and then deposited in a humidified tissue culture incubator maintained at 37° C. with 5% CO2.
(§4) At 24 hours after seeding of the cells, dilutions of test compound were prepared in DMSO and dissolved in Treatment Medium, to achieve a final DMSO concentration of 0.5% w/w, thereby providing the Test Compound Solution. A 25 μL aliquot of the Test Compound Solution was added to cells in the well plates. An equal volume of a solution containing DMSO and Treatment Medium was used as a negative control. Following treatment of cells with Test Compound Solution or said equal volume of a solution containing DMSO and Treatment Medium, the plates were spun at 300×g for 30 seconds, and then left in an incubator for 72 hours.
(§5) At the end of the treatment duration, cell viability was quantified with CellTiter-Glo 2.0 reagent (Promega Cat #G9243). For this purpose, plates were equilibrated to room temperature for 30 minutes, and then 25 μL of CellTiter-Glo 2.0 reagent was added to cells in the plate wells. Plates were then agitated on a shaker for two minutes at 500 rpm and subsequently incubated at room temperature for 10 minutes. Following incubation, the plates were spun at 3000×g for 30 seconds, then sealed with an optical adhesive cover, and luminescence readings were measured with an EnVision Plate Reader (Perkin Elmer).
(§6) Data was normalized using zero luminescence for baseline. A four-parameter non-linear regression curve fit was applied to dose-response data in GraphPad Prism data analysis software to determine the half-maximal growth inhibitory concentration (GI50) for each test compound.

[2] = tested on: T-Rex 293 cell line SC cells lacking increased expression of progesterone receptor isoform B protein; experiment: Cellular growth inhibition, T-Rex 293 SC cells without doxycycline, Example 45; assay type: cell-based; settings: T-Rex 293 SC cells not exposed to doxycycline, 72 hours treatment, CellTiter-Glo 2.0
Description: as §1, §2, §3, §4, §5, §6

SMILES	GI50 [1] [nM]	GI50 [2] [nM]
CCNC(=O)C[C@@H]1N=C(c2ccc(N(C)C3CC(OC4CCN(c5ncc(C(=O)N[C@H]6C(C)(C)[C@H](Oc7ccc(C#N)c(Cl)c7)C6(C)C)cn5)CC4)C3)cc2)c2c(sc(C)c2C)-n2c(C)nnc21 (some centres unmarked) [Compound I-130]	< 500	< 500
Cc1sc2c(c1C)C(c1ccc(OC3CN(CC4CCN(c5ncc(C(=O)N[C@H]6C(C)(C)[C@H](Oc7ccc(C#N)c(Cl)c7)C6(C)C)cn5)CC4)C3)cc1)=N[C@H](Cc1ncco1)c1nnc(C)n1-2 [Compound I-169]	< 500	< 500
Cc1sc2c(c1C)C(c1cccc(OCCOC3CCN(c4ncc(C(=O)N[C@H]5C(C)(C)[C@H](Oc6ccc(C#N)c(Cl)c6)C5(C)C)cn4)CC3)c1)=N[C@@H](CC(=O)O)c1nnc(C)n1-2 [Compound I-41]	> 3000	> 3000
Cc1sc2c(c1C)C(c1ccc(CC3CC(C4CCN(c5ncc(C(=O)N[C@H]6C(C)(C)[C@H](Oc7ccc(C#N)c(Cl)c7)C6(C)C)cn5)CC4)C3)cc1)=NC(Cc1ncco1)c1nnc(C)n1-2 (some centres unmarked) [Compound I-136]	< 500	> 3000
Cc1sc2c(c1C)C(c1ccc(C#CC3CC4(CCN(c5ncc(C(=O)N[C@H]6C(C)(C)[C@H](Oc7ccc(C#N)c(Cl)c7)C6(C)C)cn5)CC4)C3)cc1)=N[C@@H](Cc1ncco1)c1nnc(C)n1-2 [Compound I-267]	< 500	500 to 1500
CCNC(=O)C[C@@H]1N=C(c2ccc(OCCOCCOC3CCN(c4ncc(C(=O)N[C@H]5C(C)(C)[C@H](Oc6ccc(C#N)c(Cl)c6)C5(C)C)cn4)CC3)cc2)c2c(sc(C)c2C)-n2c(C)nnc21 [Compound I-44]	< 500	< 500
Cc1sc2c(c1C)C(c1ccc(OC3CC4(C3)CC3(CCN(c5ncc(C(=O)N[C@H]6C(C)(C)[C@H](Oc7ccc(C#N)c(Cl)c7)C6(C)C)cn5)CC3)C4)cc1)=N[C@@H](Cc1ncco1)c1nnc(C)n1-2 [Compound I-283]	< 500	> 3000
Cc1sc2c(c1C)C(c1ccc(CC3CN(CC4CCN(c5ncc(C(=O)N[C@H]6C(C)(C)[C@H](Oc7ccc(C#N)c(Cl)c7)C6(C)C)cn5)CC4)C3)cc1)=N[C@@H](Cc1ncco1)c1nnc(C)n1-2 [Compound I-153]	< 500	< 500
Cc1sc2c(c1C)C(c1ccc(C#CCN3CCN(c4ncc(C(=O)N[C@H]5C(C)(C)[C@H](Oc6ccc(C#N)c(Cl)c6)C5(C)C)cn4)CC3)cc1)=N[C@@H](CC(=O)OC(C)(C)C)c1nnc(C)n1-2 [Compound I-55]	< 500	500 to 1500
CCNC(=O)C[C@@H]1N=C(c2ccc(C#CCN3CCN(c4ncc(C(=O)N[C@H]5C(C)(C)[C@H](Oc6ccc(C#N)c(Cl)c6)C5(C)C)cn4)CC3)cc2)c2c(sc(C)c2C)-n2c(C)nnc21 [Compound I-54, N-[3-(3-chloro-4-cyano-phenoxy)-2,2,4,4-tetramethyl-cyclobutyl]-2-[4-[3-[4-[(9S)-9-[2-(ethylamino)-2-oxo-ethyl]-4,5,13-trimethyl-3-thia-1,8,11,12-tetrazatricyclo[8.3.0.02,6]trideca-2(6),4,7,10,12-pentaen-7-yl]phenyl]prop-2-ynyl]piperazin-1-yl]pyrimidine-5-carboxamide]	< 500	< 500
Cc1sc2c(c1C)C(c1ccc(C3CC3C3CC4(CCN(c5ncc(C(=O)N[C@H]6C(C)(C)[C@H](Oc7ccc(C#N)c(Cl)c7)C6(C)C)cn5)CC4)C3)cc1)=N[C@@H](Cc1ncco1)c1nnc(C)n1-2 (some centres unmarked) [Compound I-237]	< 500	> 3000
Cc1sc2c(c1C)C(c1ccc(Cl)cc1)=N[C@H](CC(=O)NCCOCCOCCOCCOCCOC1CCN(c3ncc(C(=O)N[C@H]4C(C)(C)[C@H](Oc5ccc(C#N)c(Cl)c5)C4(C)C)cn3)CC1)c1nnc(C)n1-2 [Compound I-14]	500 to 1500	1500 to 3000
Cc1sc2c(c1C)C(c1ccc(OCCOC3CCN(c4ncc(C(=O)N[C@H]5C(C)(C)[C@H](Oc6ccc(C#N)c(Cl)c6)C5(C)C)cn4)CC3)cc1)=N[C@@H](CC(=O)O)c1nnc(C)n1-2 [Compound I-38]	> 3000	> 3000
